Data from patent US6914045B2, “Glycopeptide antibiotics” (Wyeth Holdings Corporation, priority 2001, dated 2005).
Values after ≈ are worked out from the molar mass of the structure shown.

Experiments:
Experiment in all cases: in vitro antibacterial evaluation, MIC by broth dilution
Type in all cases: cell-based
[1] = tested on: Enterococcus sp.; settings: broth dilution, 18 hours at 35° C.; for MIC Enterococcus faecalis (ATCC 29212): strain ATCC 29212; for MIC Enterococcus faecalis (GC 2242): strain GC 2242; for MIC Enterococcus faecium (GC 2243): strain GC 2243; for MIC Enterococcus faecalis (GC 2691): strain GC 2691; for MIC Enterococcus faecalis (GC 3059): strain GC 3059; for MIC Enterococcus faecalis (GC 4552): strain GC 4552; for MIC Enterococcus faecalis (GC 4553): strain GC 4553; for MIC Enterococcus faecalis (GC 4554): strain GC 4554; for MIC Enterococcus faecium (GC 4556): strain GC 4556; for MIC Enterococcus faecium (GC 4557): strain GC 4557; for MIC Enterococcus avium (GC 4558): strain GC 4558; for MIC Enterococcus faecalis (GC 6189): strain GC 6189
How it was run: (§1)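 Broth dilution per NCCLS M7-A2 in Mueller-Hinton II medium, inoculum 5×10^5 CFU/mL, antibiotic range 64-0.06 μg/mL. MIC taken as lowest concentration inhibiting growth; Gram-positive panel includes recent clinical isolates resistant to methicillin, penicillin and/or vancomycin.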

[2] = tested on: Escherichia coli
How it was run: as §1

[3] = tested on: Staphylococcus sp.; settings: broth dilution, 18 hours at 35° C.; for MIC Staphylococcus aureus (GC 1131): strain GC 1131
How it was run: as §1

[4] = tested on: Streptococcus sp.; settings: broth dilution, 18 hours at 35° C.; for MIC Streptococcus pneumoniae (ATCC 6301): strain ATCC 6301; for MIC Streptococcus pneumoniae (GC 1894): strain GC 1894; for MIC Streptococcus pyogenes (GC 4563): strain GC 4563; for MIC Streptococcus agalactiae (GC 4564): strain GC 4564; for MIC Streptococcus pneumoniae (GC 4565): strain GC 4565
How it was run: as §1

Structure (SMILES): COc1cc(C2OCC3OC(OC4C(CO)OC(Oc5ccc(CC6NC(=O)C(C(C)c7ccccc7)NC(=O)CNC(=O)C(CO)NC(=O)C(C(O)C7CNC(=N)N7C7OC(CO)C(O)C(O)C7O)NC(=O)C(C(O)C7CNC(=N)N7)NC6=O)cc5)C(O)C4O)C(O)C(O)C3O2)cc([N+](=O)[O-])c1O (centres unmarked) [Example 169]
- MIC Enterococcus faecalis (ATCC 29212) ([1]; inoculum 5×10^5 CFU/mL): >64 µg/mL
- MIC Enterococcus faecalis (GC 2242) ([1]; inoculum 5×10^5 CFU/mL): > 64 µg/mL
- MIC Enterococcus faecium (GC 2243) ([1]; inoculum 5×10^5 CFU/mL): >64 µg/mL
- MIC Enterococcus faecalis (GC 2691) ([1]; inoculum 5×10^5 CFU/mL): >64 µg/mL
- MIC Enterococcus faecalis (GC 3059) ([1]; inoculum 5×10^5 CFU/mL): >64 µg/mL
- MIC Enterococcus faecalis (GC 4552) ([1]; inoculum 5×10^5 CFU/mL): >64 µg/mL
- MIC Enterococcus faecalis (GC 4553) ([1]; inoculum 5×10^5 CFU/mL): >64 µg/mL
- MIC Enterococcus faecalis (GC 4554) ([1]; inoculum 5×10^5 CFU/mL): >64 µg/mL
- MIC Enterococcus faecium (GC 4556) ([1]; inoculum 5×10^5 CFU/mL): >64 µg/mL
- MIC Enterococcus faecium (GC 4557) ([1]; inoculum 5×10^5 CFU/mL): 32 µg/mL (≈ 21.7 µM)
- MIC Enterococcus avium (GC 4558) ([1]; inoculum 5×10^5 CFU/mL): >64 µg/mL
- MIC Enterococcus faecalis (GC 6189) ([1]; inoculum 5×10^5 CFU/mL): >64 µg/mL
- MIC Enterococcus faecalis (ATCC 29212) [1]: >64 µg/mL
- MIC Enterococcus faecalis (GC 2242) [1]: >64 µg/mL
- MIC Enterococcus faecium (GC 2243) [1]: >64 µg/mL
- MIC Enterococcus faecalis (GC 2691) [1]: >64 µg/mL
- MIC Enterococcus faecalis (GC 3059) [1]: >64 µg/mL
- MIC Enterococcus faecalis (GC 4552) [1]: >64 µg/mL
- MIC Enterococcus faecalis (GC 4553) [1]: >64 µg/mL
- MIC Enterococcus faecalis (GC 4554) [1]: >64 µg/mL
- MIC Enterococcus faecium (GC 4556) [1]: >64 µg/mL
- MIC Enterococcus faecium (GC 4557) [1]: 32 µg/mL (≈ 21.7 µM)
- MIC Enterococcus avium (GC 4558) [1]: >64 µg/mL
- MIC Enterococcus faecalis (GC 6189) [1]: >64 µg/mL
- MIC Escherichia coli (ATCC 25922) ([2]; strain ATCC 25922, 18 hours at 35° C.): >64 µg/mL
- MIC Escherichia coli (GC 4559) ([2]; strain GC 4559, 18 hours at 35° C.): >64 µg/mL
- MIC Escherichia coli (GC 4560) ([2]; strain GC 4560, 18 hours at 35° C.): 8 µg/mL (≈ 5.43 µM)
- MIC Staphylococcus aureus (GC 1131) ([3]; inoculum 5×10^5 CFU/mL): 32 µg/mL (≈ 21.7 µM)
- MIC Staphylococcus aureus (ATCC 29213) ([3]; strain ATCC 29213): 32 µg/mL (≈ 21.7 µM)
- MIC Staphylococcus aureus (GC 1131) [3]: 32 µg/mL (≈ 21.7 µM)
- MIC Staphylococcus aureus (GC 3051) ([3]; strain GC 3051): 32 µg/mL (≈ 21.7 µM)
- MIC Staphylococcus aureus (GC 3053) ([3]; strain GC 3053): >64 µg/mL
- MIC Staphylococcus aureus (GC 4541) ([3]; strain GC 4541): 32 µg/mL (≈ 21.7 µM)
- MIC Staphylococcus aureus (GC 4542) ([3]; strain GC 4542): 32 µg/mL (≈ 21.7 µM)
- MIC Staphylococcus aureus-SMITH (GC 4543) ([3]; strain GC 4543): 32 µg/mL (≈ 21.7 µM)
- MIC Staphylococcus aureus (GC 4544) ([3]; strain GC 4544): 32 µg/mL (≈ 21.7 µM)
- MIC Staphylococcus aureus (GC 4545) ([3]; strain GC 4545): 32 µg/mL (≈ 21.7 µM)
- MIC Staphylococcus haemolyticus (GC 4546) ([3]; strain GC 4546): 32 µg/mL (≈ 21.7 µM)
- MIC Coagulase Negative Staphylococcus (GC 4547) ([3]; strain GC 4547): 32 µg/mL (≈ 21.7 µM)
- MIC Coagulase Negative Staphylococcus (GC 4548) ([3]; strain GC 4548): 32 µg/mL (≈ 21.7 µM)
- MIC Coagulase Negative Staphylococcus (GC 4549) ([3]; strain GC 4549): 16 µg/mL (≈ 10.9 µM)
- MIC Coagulase Negative Staphylococcus (GC 4551) ([3]; strain GC 4551): >64 µg/mL
- MIC Coagulase Negative Staphylococcus (GC 6257) ([3]; strain GC 6257): 8 µg/mL (≈ 5.43 µM)
- MIC Streptococcus pneumoniae (ATCC 6301) ([4]; inoculum 5×10^5 CFU/mL): 8 µg/mL (≈ 5.43 µM)
- MIC Streptococcus pneumoniae (GC 1894) ([4]; inoculum 5×10^5 CFU/mL): 8 µg/mL (≈ 5.43 µM)
- MIC Streptococcus pyogenes (GC 4563) ([4]; inoculum 5×10^5 CFU/mL): 16 µg/mL (≈ 10.9 µM)
- MIC Streptococcus agalactiae (GC 4564) ([4]; inoculum 5×10^5 CFU/mL): 32 µg/mL (≈ 21.7 µM)
- MIC Streptococcus pneumoniae (GC 4565) ([4]; inoculum 5×10^5 CFU/mL): 8 µg/mL (≈ 5.43 µM)
- MIC Streptococcus pneumoniae (ATCC 6301) [4]: 8 µg/mL (≈ 5.43 µM)
- MIC Streptococcus pneumoniae (GC 1894) [4]: 8 µg/mL (≈ 5.43 µM)
- MIC Streptococcus pyogenes (GC 4563) [4]: 16 µg/mL (≈ 10.9 µM)
- MIC Streptococcus agalactiae (GC 4564) [4]: 32 µg/mL (≈ 21.7 µM)
- MIC Streptococcus pneumoniae (GC 4565) [4]: 8 µg/mL (≈ 5.43 µM)
